2 compounds from patent US9732060B2, “Aminotriazine derivative and pharmaceutical composition comprising the same” (Shionogi & Co., Ltd., priority 2013, dated 2017) can be followed below.

Data set [1] is described as follows: Metabolism stability test, pooled human hepatic microsomes. The data set is classed as in vitro ADME. Conditions: remaining rate, human liver microsomes, 30 minutes, compound concentration 0.5 μmol/L. The procedure: Using commercially available pooled human hepatic microsomes, a test compound is reacted for a constant time, a remaining rate is calculated by comparing a reacted sample and an unreacted sample, thereby, a degree of metabolism in liver is assessed.
A reaction was performed (oxidative reaction) at 37° C. for 0 minute or 30 minutes in the presence of 1 mmol/L NADPH in 0.2 mL of a buffer (50 mmol/L tris-HCl pH 7.4, 150 mmol/L potassium chloride, 10 mmol/L magnesium chloride) containing 0.5 mg protein/mL of human liver microsomes. After the reaction, 50 μL of the reaction solution was added to 100 μL of a methanol/acetonitrile=1/1 (v/v) mixed and centrifuged at 3000 rpm for 15 minutes. The test compound in the supernatant was quantified by LC/MS/MS, and a remaining amount of the test compound after the reaction was calculated, letting a compound amount at 0 minute reaction time to be 100%.
The remaining rate at the compound concentration 0.5 μmol/L are shown below.
(Microsomes from liver hold many membrane-bound enzymes, among them those of drug oxidation.)

Data set [2] can be described thus: Solubility test (1% DMSO, artificial intestinal juice pH 6.8). The data set is classed as physicochemical. Conditions: artificial intestinal juice pH 6.8 with 1% DMSO, 25 °C, fassgf or other biorelevant, kinetic from dmso stock, artificial intestinal juice pH 6.8, 25 degrees Celsius, read-out: Solubulity.
Data set [3] has as its target human ether-a-go-go related gene (hERG) channel (Homo sapiens (Human), UniProt Q12809). As to the kind of experiment: hERG test (whole cell patch clamp, IKr). The data set is classed as cell-based. The following applies: CHO cells expressing hERG channel, IKr tail peak current. An excerpt: For the purpose of assessing risk of an electrocardiogram QT interval prolongation of the compound of the present invention, effects of the compound of the present invention on delayed rectifier K+ current (IKr), which plays an important role in the ventricular repolarization process, was studied using CHO cells expressing human ether-a-go-go related gene (hERG) channel.
After a cell was retained at a membrane potential of −80 mV by whole cell patch clamp method using an automated patch clamp system (QPatch: Sophion Bioscience A/S) and gave a leak potential of −50 mV, IKr induced by depolarization pulse stimulation at +20 mV for 2 seconds and, further, repolarization pulse stimulation at −50 mV for 2 seconds, was recorded. […] From the recording IKr, an absolute value of the tail peak current was measured based on the current value at the resting membrane potential using analysis software (Falster Patch; Sophion Bioscience A/S). Further, the % inhibition relative to the tail peak current before application of the compound of the present invention was calculated, and compared with the vehicle-applied group (0.1% dimethyl sulfoxide solution) to assess influence of the compound of the present invention on IKr.
For orientation: Block of hERG is tested as a sign of cardiac risk.

Each structure is given as a SMILES string.

human ether-a-go-go related gene (hERG) channel, sequence (Q12809 whole entry): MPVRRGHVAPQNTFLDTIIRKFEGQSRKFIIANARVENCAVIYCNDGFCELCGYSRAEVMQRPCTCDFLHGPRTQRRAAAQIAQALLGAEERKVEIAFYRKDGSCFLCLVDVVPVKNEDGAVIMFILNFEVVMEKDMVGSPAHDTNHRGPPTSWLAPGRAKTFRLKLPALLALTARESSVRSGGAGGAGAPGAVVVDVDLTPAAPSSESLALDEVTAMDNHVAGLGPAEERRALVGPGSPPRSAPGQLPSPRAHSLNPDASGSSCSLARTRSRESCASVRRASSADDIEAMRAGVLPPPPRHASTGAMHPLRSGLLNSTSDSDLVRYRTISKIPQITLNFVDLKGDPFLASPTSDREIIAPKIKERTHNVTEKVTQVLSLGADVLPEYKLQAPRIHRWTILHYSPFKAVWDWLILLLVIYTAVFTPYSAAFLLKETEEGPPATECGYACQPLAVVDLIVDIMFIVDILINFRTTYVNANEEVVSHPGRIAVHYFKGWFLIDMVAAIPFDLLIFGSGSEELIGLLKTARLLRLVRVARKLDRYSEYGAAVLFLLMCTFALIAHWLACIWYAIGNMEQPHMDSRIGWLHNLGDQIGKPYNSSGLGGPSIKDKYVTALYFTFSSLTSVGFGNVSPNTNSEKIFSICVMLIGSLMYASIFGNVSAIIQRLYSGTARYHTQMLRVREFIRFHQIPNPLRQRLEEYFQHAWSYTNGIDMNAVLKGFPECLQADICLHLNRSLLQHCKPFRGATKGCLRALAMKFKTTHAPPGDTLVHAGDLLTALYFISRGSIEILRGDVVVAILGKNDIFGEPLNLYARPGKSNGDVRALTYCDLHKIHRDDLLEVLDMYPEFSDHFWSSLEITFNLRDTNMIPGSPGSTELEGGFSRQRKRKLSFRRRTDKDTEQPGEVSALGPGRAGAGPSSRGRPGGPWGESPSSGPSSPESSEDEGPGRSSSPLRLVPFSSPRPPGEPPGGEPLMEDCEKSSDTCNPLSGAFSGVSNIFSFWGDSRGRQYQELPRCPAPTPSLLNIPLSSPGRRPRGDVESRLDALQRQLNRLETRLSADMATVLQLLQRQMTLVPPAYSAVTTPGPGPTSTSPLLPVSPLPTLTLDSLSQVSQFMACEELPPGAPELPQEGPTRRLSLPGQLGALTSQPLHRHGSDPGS

In the case of `C[C@@H](C(=O)O)[C@H](C)n1c(=O)[nH]/c(=N\c2ccc(Oc3ccc(F)cn3)c(F)c2)n(Cc2ccc(Cl)cc2)c1=O` [Compound I-002], the “Metabolism Stability” value in data set [1] turned out to be 99%. The solubility at 18 h in data set [2] was > 50 µM. The “hERG Inhibition” value in data set [3] stood at 7.3%.

For the compound `CC(C)(Cn1c(=O)[nH]/c(=N\c2ccc(Oc3ccc(Cl)cn3)cc2)n(Cc2ccc(Cl)cc2)c1=O)C(=O)O` [Compound I-006], in data set [3], the “hERG Inhibition” value worked out at 5.3%.
